For this data set, the system named is B16F10 cell. Put plainly: B16F10 melanoma-bearing model, JP1 and DTIC alone or in combination. Format: in vivo, mouse. The method, then: (A-C) (A) Schematic representation of the B16F10 and MEWO cells melanoma-bearing model for JP1 treatment (n = 6 per group). JP1 and its control agents were administered by intraperitoneal injection. […] (D-G) (D) Schematic representation of the B16F10 cell melanoma passive metastasis model for JP1 treatment. JP1 and its control agents were administered by intraperitoneal injection. […] (F) The representative melanoma lung metastatic images by H&E-staining (scale bars, 1000 μm). […] (J-L) (J) Schematic representation of the B16F10 cell melanoma-bearing model (n= 6 per group). Both JP1 and DTIC alone or in combination treatments and relative control was administered by intraperitoneal injection in mice.
The chemotherapeutic agent dacarbazine (DTIC) is currently as the first line drug used to treat metastatic melanoma in clinic, and was reported to cause painful symptoms and acquired resistance, compromising patient quality of life. To determine the possibility as a combination therapy between DTIC and JP1, we completed a joint treatment of DTIC and JP1 for melanoma tumor-bearing model (Figure 2J).

Turning to `CN(C)/N=N/c1[nH]cnc1C(N)=O` [DTIC, dacarbazine], under “80 mg/kg DTIC i.p.”, the “body weight during treatment” value is on record as “lost body weight continuously during treatment”. Also, for the setting “80 mg/kg DTIC i.p., B16F10 melanoma-bearing mouse”, the “inhibitory effect on melanoma proliferation” value is recorded as “more significant inhibitory effect on melanoma proliferation than that by 50 mg/kg JP1”. In addition, the “liver HE staining” value (after DTIC treatment) is given as “significant degenerations in liver cells”.

(Values after publication PMC7381750, “JP1 suppresses proliferation and metastasis of melanoma through MEK1/2 mediated NEDD4L-SP1-Integrin αvβ3 signaling” (Theranostics, 2020).)
